Measurements as given in article PMC12662848 (Cancer Chemotherapy and Pharmacology, 2025).

Columns and labels:
[1] = cited from earlier work
[2] = Enzalutamide and N-desmethyl enzalutamide trough plasma PK (LC–MS/MS); settings: for ENZAdm Cmin D1: 24 h sample relative to Cmin D0; for ENZAdm Cmin D1 / ENZAdm Cmin D0: geometric mean (geometric SD); for ENZAdm Cmin D0: pre 1st venetoclax sample on day 1
Protocol: Additional samples were collected prior to dosing on days 8, 15, 21, and 57 (Fig. 1A). Samples were centrifuged at approximately 1,000 × g, and plasma was stored at −70 °C or colder until analysis.
Plasma PK parameters were derived from the data by non-compartmental methods with WinNonlin (Certara, Princeton, NJ). Statistical analyses for PK parameter values were performed using SPSS 27.0 for Windows (SPSS Inc., Chicago, IL). Within patient variability in Cmin was calculated from the day 8 through day 57 data across doses by calculating 100 × the square root of the mean square within groups obtained after ANOVA of log-transformed values of these parameters with subject as a factor.

[3] = tested on: AR−/lo LAPC9-CRPC; set-up: method as in PMID 30190514; settings: single agent; cited from earlier work
[4] = tested on: CYP3A4; settings: a sensitive CYP3A4 substrate; cited from earlier work

Compound	N-desmethyl enzalutamide concentration in previous reports [1]	Intrapatient variability in Cmin ([2]; N-desmethyl enzalutamide, from day 1 through 57)	ENZAdm Cmin D1 ([2]; venetoclax 400 mg (N=3))	ENZAdm Cmin D0 ([2]; venetoclax 400 mg (N=3))	ENZAdm Cmin D1 ([2]; venetoclax 600 mg (N=3))	ENZAdm Cmin D0 ([2]; venetoclax 600 mg (N=3))	ENZAdm Cmin D1 ([2]; venetoclax 800 mg (N=4))	Growth of AR−/lo LAPC9-CRPC [3]	Enzalutamide concentration in previous reports [1]	Intrapatient variability in Cmin ([2]; male, human, in vivo)	ENZA Cmin D1 ([2]; male, human, in vivo, 24 h)	Increase in oral clearance of midazolam [4]
CC1(C)C(=O)N(c2ccc(C#N)c(C(F)(F)F)c2)C(=S)N1c1ccc(C(N)=O)c(F)c1 [N-desmethyl enzalutamide]	13 µg/L	10 %CV	7.59 (1.34) µg/mL	7.04 (1.31) µg/mL	15.1 (1.12) µg/mL	15.2 (1.07) µg/mL	14.2 (1.21) µg/mL	–	–	–	–	–
CNC(=O)c1ccc(N2C(=S)N(c3ccc(C#N)c(C(F)(F)F)c3)C(=O)C2(C)C)cc1F [enzalutamide]	–	–	–	–	–	–	–	not	11.4 µg/L	7.0 %CV	12.4 (1.19) µg/mL	sevenfold
